Test results taken from PMC9388906, “Dual inhibition of the Echinococcus multilocularis energy metabolism” (Frontiers in Veterinary Science, 2022).

Experiments:
Format in all cases: cell-based, Echinococcus multilocularis
[1] = tested on: E. multilocularis metacestodes; test: Transmission electron microscopy of treated metacestodes; details: 5 days
Method: E. multilocularis metacestodes treated with ELQ-400 (0.2, 1 and 2 μM, 5 days of incubation) under normoxic (37°C, 21% O2, 5% CO2, humid atmosphere) and anaerobic conditions (37°C, 80% N2, 10% CO2, and 10% H2, humid atmosphere) were processed for TEM as previously described ([17]). Metacestodes were washed in 100 mM sodium cacodylate buffer (pH 7.3), and were fixed in 2% glutaraldehyde in cacodylate buffer overnight at 4°C. Following several washes in cacodylate buffer, metacestodes were post-fixed in 2% osmium tetroxide in cacodylate buffer for 3–4 h, washed in water, and samples were treated with Uranyless™ solution (EMS, Hatfield, PA, USA) for 20 min, followed by several washes in distilled water. Specimens were dehydrated in a graded series of ethanol and were embedded in EPON-812 epoxy resin. Polymerization of the resin was carried out at 60°C for 24 h. Ultrathin sections were cut on a Reichert and Jung (Vienna) microtome, and were allowed to settle onto 400 mesh formvar carbon coated grids (Plano GmbH, Wetzlar, Germany). Specimens were contrasted with Uranyless and lead citrate, and were viewed on a FEI Morgagni Transmission Electron Microscope operating at 80 kV.

[2] = tested on: E. multilocularis GL cells (isolate H95); test: GL cell viability assay (CellTiter-Glo), isolate H95; details: isolate H95; 0.1 μM; 5 days; nitrogen atmosphere; mean (SD); active if <30%
Method: (§1) To assess the in vitro efficacy of ELQs against E. multilocularis, (a) the damage-marker phosphoglucose isomerase (PGI) assay was applied against metacestodes, and (b) the germinal layer (GL) cell viability assay was applied to measure effects on isolated GL cells. Both assays are described in more detail below. The drug testing strategy was as follows: PGI assay was first conducted for overview screening at 10 μM with the parasite isolates H95 and Sval. The GL cell viability assay was performed at 0.1 μM with both isolates H95 and Sval.
(§2) The isolation of E. multilocularis GL cells was done as described previously ([17]) with minor modifications. Fifteen units of GL cells were distributed to each well of a 384 well plate in a total volume of 12.5 μL conditioned medium. The different ELQs were added to the wells to 0.1 μM, in quadruplicates. As a negative control 0.1% DMSO was used. The 384-well plate was incubated for 5 days at 37°C under humid nitrogen atmosphere. Thereafter, viability of the GL cells under different drug treatments was assessed by CellTiter-Glo® (Promega AG, Dübendorf, Switzerland). The CellTiter-Glo reagent was complemented with 1% Tx-100. The luciferase bioluminescence was measured at 530 nm by using the Enspire multilabel reader (PerkinElmer Life Sciences, Schwerzenbach, Switzerland). Using Microsoft Excel, the blank values were subtracted from the experimental values and the relative viability compared to DMSO was calculated. Viabilities were calculated as mean values and standard deviations for each quadruplicate.

[3] = tested on: E. multilocularis GL cells (isolate Sval); test: GL cell viability assay (CellTiter-Glo), isolate Sval; details: isolate Sval; 0.1 μM; 5 days; nitrogen atmosphere; mean (SD); active if <30%
Method: as §1, §2

[4] = tested on: mitochondrial bc1 complex of E. multilocularis GL cells; test: Seahorse oxygen consumption rate assay; details: 1 μM; succinate as initial electron donor; restored by ascorbate/TMPD, not by succinate or glycerol 3-phosphate
Method: To measure effects of ELQ-400 on the oxygen consumption rate (OCR), Seahorse assay was conducted according to the method established by Rufener et al. ([17]) and according to the manual for Seahorse XFp Extracellular Flux Analyzer (Agilent Technologies, Bucher Biotec, Basel, Switzerland). E. multilocularis GL cells were isolated and prepared the day before. Cells were centrifuged and resuspended in Mitochondrial Assay Solution (MAS) solution (220 mM mannitol, 70 mM sucrose, 10 mM KH2PO4, 5 mM MgCl2, 2 mM HEPES, and 1 mM EGTA pH 7.2). This cell suspension was centrifuged again and the pellet was resuspended in assay-buffer (MAS, 10 mM succinate, 2 μM rotenone, 4 mM ADP, and 3.6 nM PMP). 100 units of GL cells were distributed to each well of a Seahorse XFp miniplate (Agilent Technologies) pre-coated with CellTak according to the instruction manual (Fisher Scientific, Schwerte, Germany). Two wells were used as blanks with assay buffer without cells. ELQ-400 (1 μM) was diluted in MAS solution and loaded to the delivery ports of the sensor cartridge of the first injection (or DMSO as a control). In the second injection, succinate (10 mM), glycerol 3-phosphate (10 mM), or ascorbate (20 mM) with TMPD (0.6 mM) was added. […] Each drug setup was tested in triplicates and the read-out and analysis was done using the software Wave (Agilent Technologies, Bucher Biotec, Basel, Switzerland). […]

[5] = tested on: E. multilocularis metacestodes; test: Succinate concentrations in culture supernatants (malate dismutation activity); details: 10 μM, 5 days
Method: Both compounds were tested either alone or in combination at 10 μM with the above-described PGI assay for 5 days for their activity against E. multilocularis metacestodes. PGI assays were done in triplicates and two times independently. […] To assess direct effects on the MD, succinate levels were measured in the supernatants of the PGI assay, as described below. To determine whether differences between groups were significant, data was subjected to student's t-test analysis and P-values below 0.05 are given.
Succinate measurements in supernatants of drug-treated E. multilocularis metacestodes was performed with the “Succinic Acid Assay Kit” (Megazyme, Bray, Ireland). […] 20 μL of each diluted (1:20) sample or standard was used in triplicate for succinate measurements in 96-well plates (flat bottom, Greiner Bio-One GmbH, Frickenhausen, Germany). The reaction mix buffer was prepared as described in the supplier manual: per well 180 μL H2O, 20 μL solvent 1 (buffer, pH 8.4, sodium azide 0.02% w/v), 20 μL solvent 2 (NADH plus stabilizer), 20 μL solvent 3 (ATP, PEP, and CoA) and 2 μL solvent 4 (pyruvate kinase plus L-lactate dehydrogenase suspension) were added. After a 180 s pre-incubation time, a first measurement at 340 nm was done on an EnSpire multilabel plate reader (PerkinElmer Life Sciences, Schwerzenbach, Switzerland). 10 μL solvent 5 (succinyl-CoA synthetase suspension; 1:10 diluted) were then added to each well and the plate was read at 340 nm for 1 h every minute. […] Succinate levels are shown as mean values with standard deviations of biological triplicates. To determine whether differences between groups were significant, data was subjected to student's t-test analysis and P-values below 0.05 are given.

[6] = tested on: E. multilocularis metacestodes (isolate Sval); test: PGI assay (damage marker release), metacestodes, isolate Sval; details: isolate Sval, 10 μM
Method: as §1
The PGI assay measures the amount of PGI that metacestodes release into the medium when damaged ([17], [32]). The purification and in vitro drug incubation of E. multilocularis metacestodes was conducted according to Stadelmann et al. ([32]). In short, cultures were applied for in vitro drug testing at the age of 6-8 weeks. E. multilocularis metacestodes were therefore purified by the addition of 2% saccharose and washed extensively with PBS. Purified metacestodes were suspended 1:3 with DMEM (without phenol red, supplemented with 100 U/mL penicillin, 100 μg/mL streptomycin) and distributed in 48-well plates (1 mL/well, thus 300 μL pure metacestode vesicles per well). […] The corresponding DMSO concentration was used as negative control and Tx-100 (0.1% final concentration) was used for total damage (positive control). […] After 5 days, relative PGI activities were measured and calculated as percentage of the Tx-100 control as described previously in Rufener et al. ([17]). They were calculated as mean values and standard deviations for each triplicate. […] EC50 measurements were performed twice, and averages and standard deviations of these repeated tests are given.

In the case of `Cc1[nH]c2cc(F)cc(F)c2c(=O)c1-c1ccc(Oc2ccc(OC(F)(F)F)cc2)cc1` [ELQ-400], the “Ultrastructural effects on metacestodes (TEM)” value ([1]; 0.2 μM, normoxic (21% O2)) is reported as “did not show obvious ultrastructural alterations”, the “Ultrastructural effects on metacestodes (TEM): overall structural organization, especially of the GL” value ([1]; 1 μM, normoxic (21% O2)) is reported as “partially compromised” and the “Ultrastructural effects on metacestodes (TEM)” value ([1]; 2 μM, normoxic (21% O2)) is reported as “partial separation of the GL and the LL”. For the same compound, the “Ultrastructural effects on metacestodes (TEM)” value ([1]; anaerobic conditions, compared with damage at 1 and 2 μM under normoxic conditions) was “did not exhibit such alterations”, the “GL cells, viability via ATP measurements, relative to DMSO control” value [2] was 8.4 (4.8) % and the “GL cells, viability via ATP measurements, relative to DMSO control” value [3] was 14.6 (8.6) %. For the same compound, the “Oxygen consumption rate (OCR) of GL cells” value [4] was “immediate reduction of the OCR”, the “Release of succinate by metacestodes compared to DMSO control” value ([5]; anaerobic) was “significantly enhanced” and the “Release of succinate by metacestodes compared to DMSO control” value ([5]; normoxic) was “significantly enhanced”. For the same compound, the “Metacestodes, PGI assay, relative to positive control Tx-100” value ([6]; 5 days, normoxic, mean (SD) of triplicates, active if >20%) was 27 (10.5) % and the “Activity in PGI assay (activity call)” value ([6]; threshold >20% of Tx-100) was “activity”.
